Test results published in US7560466B2, “Methods of treating or preventing autoimmune diseases with 2,4-pyrimidinediamine compounds” (Rigel Pharmaceuticals, Inc., priority 2003, dated 2009).
Where two headings read alike, the source gives them in different places.

Tested on: cultured human mast cells (CHMC), IgE-induced degranulation
Test: CHMC low cell density IgE activation: tryptase assay
Assay type: cell-based
Summary of the method: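 Tryptase release read fluorogenically (30 min, room temperature) from supernatants of anti-IgE-challenged cultured human mucosal mast cells derived from umbilical cord CD34+ cells, at low density of 1000–1500 cells/well.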

[1] = CHMC low cell density, 8pt, read-out: LD Tryptase, CHMC, IgE, 8pt
[2] = low cell density CHMC, 8-point, read-out: LD Tryptase, CHMC, IgE, 8pt
[3] = low cell density CHMC, 3-point, read-out: LD Tryptase, CHMC, IgE, 3pt

| SMILES | IC50 [2] | other results |
| --- | --- | --- |
| COc1c(C)cc(Nc2ncc(F)c(Nc3ccc4c(c3)NCC(C)(C)O4)n2)cc1Cl [Compound 1001, N2-(3-Chloro-4-methoxy-5-methylphenyl)-N4-(3,4-dihydro-2,2-dimethyl-4H-benz[1,4]oxazin-6-yl)-5-fluoro-2,4-pyrimidinediamine] |  | IC50 [1]: < 10 µM |
| COc1cc(Nc2ncc(F)c(Nc3ccc4c(c3)NCC(C)(C)O4)n2)cc(OC)c1 [Compound 1002, N4-(3,4-Dihydro-2,2-dimethyl-4H-benz[1,4]oxazin-6-yl)-N2-(3,5-dimethoxyphenyl)-5-fluoro-2,4-pyrimidinediamine] |  | IC50 [1]: < 10 µM |
| CC(C)c1cccc(Nc2ncc(F)c(Nc3ccc4c(n3)NC(=O)C(C)(C)O4)n2)c1 [Compound 1003, N4-(2,2-Dimethyl-3-oxo-4H-5-pyrid[1,4]oxazin-6-yl)-5-fluoro-N2-(3-isopropylphenyl)-2,4-pyrimidinediamine] |  | IC50 (CHMC low cell density, 3pt, read-out: LD Tryptase, CHMC, IgE, 3pt): < 10 µM; IC50 [1]: < 10 µM |
| CC1(C)Oc2ccc(Nc3nc(Nc4ccc(-c5ncco5)cc4)ncc3F)nc2NC1=O [Compound 1035, N4-(2,2-Dimethyl-3-oxo-4H-5-pyrid[1,4]oxazin-6-yl)-5-fluoro-N2-[4-(oxazol-2-yl)phenyl]-2,4-pyrimidinediamine] | > 10 µM |  |
| COc1c(C)cc(Nc2ncc(F)c(Nc3ccc4c(n3)NC(=O)CO4)n2)cc1C [Compound 1059, N2-(3,5-Dimethyl-4-methoxyphenyl)-5-fluoro-N4-(3-oxo-2H,4H-5-pyrid[1,4]oxazin-6-yl)-2,4-pyrimidinediamine] | < 10 µM |  |
| COc1cccc(Nc2ncc(F)c(Nc3ccc4c(n3)NC(=O)CO4)n2)c1C [Compound 1061, 5-Fluoro-N2-(3-methoxy-2-methylphenyl)-N4-(3-oxo-2H,4H-5-pyrid[1,4]oxazin-6-yl)-2,4-pyrimidinediamine] | < 10 µM |  |
| Cc1c(O)cccc1Nc1ncc(F)c(Nc2ccc3c(n2)NC(=O)CO3)n1 [Compound 1063, 5-Fluoro-N2-(3-hydroxy-2-methylphenyl)-N4-(3-oxo-2H,4H-5-pyrid[1,4]oxazin-6-yl)-2,4-pyrimidinediamine] | < 10 µM |  |
| Cc1c(O)cccc1Nc1ncc(F)c(Nc2ccc3c(n2)NC(=O)C(C)(C)O3)n1 [Compound 1064, N4-(2,2-Dimethyl-3-oxo-4H-5-pyrid[1,4]oxazin-6-yl)-5-fluoro-N2-(3-hydroxy-2-methylphenyl)-2,4-pyrimidinediamine] | < 10 µM |  |
| COc1cccc(Nc2ncc(F)c(Nc3ccc4c(n3)NC(=O)C(C)(C)O4)n2)c1C [Compound 1065, N4-(2,2-Dimethyl-3-oxo-4H-5-pyrid[1,4]oxazin-6-yl)-5-fluoro-N2-(3-methoxy-2-methylphenyl)-2,4-pyrimidinediamine] |  | IC50 [3]: < 10 µM |
| COC(=O)COc1cccc(Nc2ncc(F)c(Nc3ccc4c(c3)NC(=O)C(C)(C)O4)n2)c1C [Compound 1066, N4-(2,2-Dimethyl-3-oxo-4H-benz[1,4]oxazin-6-yl)-5-fluoro-N2-[3-methoxycarbonylmethyleneoxy-2-methylphenyl]-2,4-pyrimidinediamine] |  | IC50 [3]: < 10 µM |
| CNC(=O)COc1cccc(Nc2ncc(F)c(Nc3ccc4c(c3)NC(=O)C(C)(C)O4)n2)c1C [Compound 1067, N4-(2,2-Dimethyl-3-oxo-4H-benz[1,4]oxazin-6-yl)-5-fluoro-N2-[2-methyl-3-(N-methylamino)carbonylmethyleneoxyphenyl]-2,4-pyrimidinediamine] | < 10 µM |  |
| CNC(=O)COc1cccc(Nc2ncc(F)c(Nc3ccc4c(n3)NC(=O)CO4)n2)c1C [Compound 1068, 5-Fluoro-N2-[2-methyl-3-(N-methylamino)carbonylmethyleneoxyphenyl]-N4-(3-oxo-2H,4H-5-pyrid[1,4]oxazin-6-yl)-2,4-pyrimidinediamine] | < 10 µM |  |
| Cc1cc(Nc2ncc(F)c(Nc3ccc4c(n3)NC(=O)CO4)n2)cc(C)c1O [Compound 1069, N2-(3,5-Dimethyl-4-hydroxyphenyl)-5-fluoro-N4-(3-oxo-2H,4H-5-pyrid[1,4]oxazin-6-yl)-2,4-pyrimidinediamine] | < 10 µM |  |
| CCOC(=O)N1CCN(c2cccc(Nc3ncc(F)c(Nc4ccc5c(n4)NC(=O)CO5)n3)c2)CC1 [Compound 1070, N2-[3-(4-Ethoxycarbonylpiperazino)phenyl]-5-fluoro-N4-(3-oxo-2H,4H-5-pyrid[1,4]oxazin-6-yl)-2,4-pyrimidinediamine] | < 10 µM |  |
| CC(=O)N1CCN(c2cccc(Nc3ncc(F)c(Nc4ccc5c(n4)NC(=O)CO5)n3)c2)CC1 [Compound 1071, N2-[3-(4-Acetylpiperazino)phenyl]-5-fluoro-N4-(3-oxo-2H,4H-5-pyrid[1,4]oxazin-6-yl)-2,4-pyrimidinediamine] | < 10 µM |  |
| CCOC(=O)N1CCN(c2ccc(Nc3ncc(F)c(Nc4ccc5c(n4)NC(=O)CO5)n3)cc2)CC1 [Compound 1072, N2-[4-(4-Ethoxycarbonylpiperazino)phenyl]-5-fluoro-N4-(3-oxo-2H,4H-5-pyrid[1,4]oxazin-6-yl)-2,4-pyrimidinediamine] | < 10 µM |  |

Second part, led by results:

| IC50 [2] | SMILES | other results |
| --- | --- | --- |
| < 10 µM | O=C1COc2ccc(Nc3nc(Nc4cccc(N5CCOCC5)c4)ncc3F)nc2N1 [Compound 1073, 5-Fluoro-N2-(3-morpholinophenyl)-N4-(3-oxo-2H,4H-5-pyrid[1,4]oxazin-6-yl)-2,4-pyrimidinediamine] |  |
| < 10 µM | CN1CCN(c2cccc(Nc3ncc(F)c(Nc4ccc5c(n4)NC(=O)CO5)n3)c2)CC1 [Compound 1074, 5-Fluoro-N2-[3-(4-methylpiperazion)phenyl]-N4-(3-oxo-2H,4H-5-pyrid[1,4]oxazin-6-yl)-2,4-pyrimidinediamine] |  |
| < 10 µM | CCOC(=O)N1CCN(c2cccc(Nc3ncc(F)c(Nc4ccc5c(n4)NC(=O)C(C)(C)O5)n3)c2)CC1 [Compound 1075, N4-(2,2-Dimethyl-3-oxo-4H-5-pyrid[1,4]oxazin-6-yl)-N2-[3-(4-ethoxycarbonylpiperazino)phenyl]-5-fluoro-2,4-pyrimidinediamine] |  |
| < 10 µM | CC(=O)N1CCN(c2cccc(Nc3ncc(F)c(Nc4ccc5c(n4)NC(=O)C(C)(C)O5)n3)c2)CC1 [Compound 1076, N2-[3-(4-Acetylpiperazino)phenyl]-N4-(2,2-dimethyl-3-oxo-4H-5-pyrid[1,4]oxazin-6-yl)-5-fluoro-2,4-pyrimidinediamine] |  |
| < 10 µM | CCOC(=O)N1CCN(c2ccc(Nc3ncc(F)c(Nc4ccc5c(n4)NC(=O)C(C)(C)O5)n3)cc2)CC1 [Compound 1077, N4-(2,2-Dimethyl-3-oxo-4H-5-pyrid [1,4]oxazin-6-yl)-N2-[4-(4-ethoxycarbonylpiperazino)phenyl]-5-fluoro-2,4-pyrimidinediamine] |  |
| < 10 µM | CC1(C)Oc2ccc(Nc3nc(Nc4cccc(N5CCOCC5)c4)ncc3F)nc2NC1=O [Compound 1078, N4-(2,2-Dimethyl-3-oxo-4H-5-pyrid[1,4]oxazin-6-yl)-5-fluoro-N2-(3-morpholinophenyl)-2,4-pyrimidinediamine] |  |
| < 10 µM | CNC(=O)COc1cccc(Nc2ncc(F)c(Nc3ccc4c(n3)NC(=O)C(C)(C)O4)n2)c1C [Compound 1079, N4-(2,2-Dimethyl-3-oxo-4H-5-pyrid [1,4]oxazin-6-yl)-5-fluoro-N2-[2-methyl-3-(N-methylamino)carbonylmethyleneoxyphenyl]-2,4-pyrimidinediamine] |  |
| < 10 µM | CN1CCN(c2cccc(Nc3ncc(F)c(Nc4ccc5c(n4)NC(=O)C(C)(C)O5)n3)c2)CC1 [Compound 1080, N4-(2,2-Dimethyl-3-oxo-4H-5-pyrid [1,4]oxazin-6-yl)-5-fluoro-N2-[3-(4-methylpiperazino)phenyl]-2,4-pyrimidinediamine] |  |
| < 10 µM | COc1ccc(Nc2ncc(F)c(Nc3ccc4c(n3)NC(=O)[C@H](C)O4)n2)cc1Cl [Compound 1081, (S)—N2-(3-Chloro-4-methoxyphenyl)-5-fluoro-N4-(2-methyl-3-oxo-2H,4H-5-pyrid[1,4]oxazin-6-yl)-2,4-pyrimidinediamine] | IC50 [3]: < 10 µM |
| < 10 µM | COc1cc(Nc2ncc(F)c(Nc3ccc4c(n3)NC(=O)[C@H](C)O4)n2)cc(OC)c1OC [Compound 1082, (S)-5-Fluoro-N4-(2-methyl-3-oxo-2H,4H-5-pyrid[1,4]oxazin-6-yl)-N2-(3,4,5-trimethoxyphenyl)-2,4-pyrimidinediamine] | IC50 [3]: < 10 µM |
| < 10 µM | Cc1cc(C)cc(Nc2ncc(F)c(Nc3ccc4c(n3)NC(=O)[C@H](C)O4)n2)c1 [Compound 1084, (S)—N2-(3,5-Dimethylphenyl)-5-fluoro-N4-(2-methyl-3-oxo-2H,4H-5-pyrid[1,4]oxazin-6-yl)-2,4-pyrimidinediamine] | IC50 [3]: > 10 µM |
| < 10 µM | Fc1cnc(Nc2cccc(-c3cnco3)c2)nc1Nc1ccc2c(n1)NCCO2 [Compound 1132, N4-(3,4-Dihydro-2H,4H-5-pyrid[1,4]oxazin-6-yl)-5-fluoro-N2-[3-(oxazol-5-yl)phenyl]-2,4-pyrimidinediamine] |  |
| < 10 µM | CC(=O)N1CCN(c2ccc(Nc3ncc(F)c(Nc4ccc5c(n4)NCCO5)n3)cc2)CC1 [Compound 1134, N2-[4-(4-Acetylpiperazino)phenyl]-N4-(3,4-dihydro-2H,4H-5-pyrid[1,4]oxazin-6-yl)-5-fluoro-2,4-pyrimidinediamine] | IC50 [3]: < 10 µM |
| < 10 µM | CCOC(=O)N1CCN(c2ccc(Nc3ncc(F)c(Nc4ccc5c(n4)NCCO5)n3)cc2)CC1 [Compound 1135, N4-(3,4-Dihydro-2H,4H-5-pyrid[1,4]oxazin-6-yl)-N2-[4-(4-ethoxycarbonylpiperazino)phenyl]-5-fluoro-2,4-pyrimidinediamine] | IC50 [3]: < 10 µM |
| < 10 µM | Fc1cnc(Nc2cccc(N3CCOCC3)c2)nc1Nc1ccc2c(n1)NCCO2 [Compound 1136, N4-(3,4-Dihydro-2H,4H-5-pyrid[1,4]oxazin-6-yl)-5-fluoro-N2-(3-morpholinophenyl)-2,4-pyrimidinediamine] | IC50 [3]: < 10 µM |
